# Measured values reported in patent US9248131B2, “Aquaporin modulators and methods of using them for the treatment of edema and fluid imbalance” (THE ARIZONA BOARD OF REGENTS ON BEHALF OF THE UNIVERSITY OF …, priority 2006, dated 2016).
# How the values were obtained:
# AQP4 = biological target: T1, AQP4 (Homo sapiens, UniProt P55087); assay: Oocyte swelling assay: water permeability (Pf) of AQP4-expressing oocytes by videomicroscopy, block or % stimulation; type: cell-based
# T1 construct: expressed in transfected cells; host or cells: Xenopus oocytes
# Text: A method for screening compounds for their ability to modulate aquaporin activity based on a water permeability assay in Xenopus oocytes expressing aquaporins which is used to identify, assess, and characterize compounds that either block or stimulate the aquaporin channels including AQP1, AQP4 and AQP9 channels.
# Selection rationale and methodology. The ability of compounds, analogs and/or agents to block an aquaporin channel was quantified by videomicroscopic analyses of cross-sectional area of AQP-expressing oocytes as a function of time in a defined osmotic gradient, allowing the calculation of the water permeability factor (Pf), statistical evaluation of significant differences in the rate of water entry, and definition of dose response curves with IC50 values (concentration required for half-maximal block).
# This compound evaluation method has been utilized with AQP1,-4,-5, and -9 channels. Observations of channel stimulation were made using the same assay method, however, the results were reported as % stimulation over control at a given concentration. […] TEA is known as a blocker of K^+ channel subtypes and nicotinic acetylcholine receptors. TEA sensitivity of AQP1 was removed by site-directed mutagenesis of tyrosine 186 to phenylalanine (Y186F) in the outer vestibule of the water pore, and confirmed that the inhibitory action of TEA is not due to nonspecific effects on endogenous channels (Brooks et al., 2000).
# [1] = biological target: T2, native AQP4 in primary cultures of astroglia (Rattus norvegicus, UniProt P47863); assay: Astroglial swelling in primary hippocampal cultures after 50% hypotonic saline; type: cell-based; details: 100 μM extracellular, 15 min preincubation
# T2 construct: endogenous in cells; host or cells: rat primary hippocampal astroglial cultures
# Procedure: The role of native AQP4 as a target of block by bumetanide was tested in primary cultures of astroglia (FIG. 4). We compared the swelling responses of rat astroglial cells in primary hippocampal cultures after 15 min preincubation with or without drug. Swelling was induced by rapid perfusion of the culture plate with 50% hypotonic saline, either with or without extracellular bumetanide (100 μM) to match the preincubation condition. Glial cells were identified by morphological comparison with cells positive for a glial-specific marker (GFAP). Time-lapse images were taken at 15 second intervals before and during hypotonic challenge. The response was determined by the change in soma area as a function of time, as visualized by time-lapse digital imaging (Olympus MagnaFire™ camera and image acquisition software) using an inverted phase contrast microscope (Nikon); data were analyzed by Scion Image (NIH) software. Each culture was used for only one swelling trial. […]
# FIG. 3 illustrates the protective effect of bumetanide on astroglial swelling in primary hippocampal cultures (14-15 days in vitro) after exposure to 50% hypotonic saline at time zero. Plot (left): Cell area visualized by phase contrast microscopy, standardized to the initial volume quantified by Scion Image (NIH) software. […]
# T2 sequence (P47863 whole entry): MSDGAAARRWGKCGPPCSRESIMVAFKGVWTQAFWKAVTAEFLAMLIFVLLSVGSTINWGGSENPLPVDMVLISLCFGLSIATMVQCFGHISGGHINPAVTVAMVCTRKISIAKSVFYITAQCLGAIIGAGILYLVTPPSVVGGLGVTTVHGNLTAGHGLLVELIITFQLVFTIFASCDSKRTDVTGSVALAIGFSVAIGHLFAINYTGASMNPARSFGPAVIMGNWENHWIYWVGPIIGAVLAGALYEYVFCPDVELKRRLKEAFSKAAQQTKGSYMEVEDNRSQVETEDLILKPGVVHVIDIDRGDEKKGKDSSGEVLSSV
# T1 sequence (P55087 whole entry, species assumed): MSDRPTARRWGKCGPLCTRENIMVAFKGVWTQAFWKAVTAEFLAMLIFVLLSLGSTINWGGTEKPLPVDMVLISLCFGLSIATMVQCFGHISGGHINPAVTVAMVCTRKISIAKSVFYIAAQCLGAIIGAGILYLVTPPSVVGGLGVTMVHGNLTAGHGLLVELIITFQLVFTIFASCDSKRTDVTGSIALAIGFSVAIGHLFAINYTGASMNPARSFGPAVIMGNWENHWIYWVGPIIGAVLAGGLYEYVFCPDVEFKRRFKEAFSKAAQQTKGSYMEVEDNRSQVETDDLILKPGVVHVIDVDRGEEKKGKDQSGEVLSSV
smiles,measurement,setting,value
CCCCNc1cc(C(=O)O)cc(S(N)(=O)=O)c1Oc1ccccc1 [bumetanide],block of swelling rate in AQP4-expressing oocytes,AQP4; extracellular application,Dose-dependent block
same,block of swelling in AQP4-expressing oocytes,AQP4; internal injection into the oocyte (intracellular),improved block at lower concentrations
same,glial initial swelling (soma area),[1],reduced
same,regulatory volume decrease (RVD),[1],reduced
